Experiment [1] has as its system Staphylococcus aureus subsp. aureus (ATCC29213). Briefly: MIC, broth microdilution (CLSI), Staphylococcus aureus subsp. aureus ATCC29213. Type of experiment: cell-based. As to conditions: ATCC29213, Table 15, read-out: S. aureus ("wound") (MIC). A general note: Broth dilution looks for growth in wells or tubes with falling amounts of substance.
Experiment [2] deals with Escherichia coli (ATCC25922). The experiment can be described thus: MIC, broth microdilution (CLSI), Escherichia coli ATCC25922.
Setting [3] is: ATCC25922, read-out: E. coli MIC, Table 15, NI = No inhibition.
The mark [4] stands for this setting: ATCC25922, read-out: E. coli MIC.

Values after ≈ are worked out from the molar mass of the structure shown. Structures can show the parent of a compound that is named as a salt. Where two headings read alike, the source gives them in different places.

The MIC is the least concentration at which growth counts as inhibited.

As to `Cl.NCCNCCCNc1cc(C(F)(F)F)cc2c1Nc1ccc(N3CCC4CCCC43)cc1S2` (stereo not shown) [compound 351, N1-(2-aminoethyl)-N3-(7-(hexahydro-cyclopenta[b]pyrrol-1(2H)-yl)-3-(trifluoromethyl)-10H-phenothiazin-1-yl)propane-1,3-diamine hydrochloride], the MIC in experiment [1] turned out to be 4 µg/mL; in experiment [2] (setting [3]), 16 µg/mL.

Consider `FC(F)(F)c1cc(NC2CC3CCC(C2)N3)c2c(c1)Sc1ccccc1N2` (stereo not shown) [compound 290, N-(8-azabicyclo[3.2.1]octan-3-yl)-3-(trifluoromethyl)-10H-phenothiazin-1-amine], for which the MIC in experiment [1] came out at 8 µg/mL (≈ 20.4 µM); in experiment [2] (setting [3]), 32 µg/mL (≈ 81.7 µM).

Turning to `NC1CCCC(C(=O)Nc2cc(C(F)(F)F)cc3c2Nc2ccc(N4CCNCC4)cc2S3)C1` (stereo not shown) [compound 256, 3-amino-N-(7-(piperazin-1-yl)-3-(trifluoromethyl)-10H-phenothiazin-1-yl)cyclohexane-1-carboxamide], the figures for the minimal inhibitory concentration (MIC) in experiment [1] and in experiment [2] (setting [3]) were 16 µg/mL (≈ 32.5 µM) and 32 µg/mL (≈ 65.1 µM), respectively.

On to `CN(C)CCNCC(=O)CNc1cc(C(F)(F)F)cc2c1Nc1ccc(N3CCCC3)cc1S2.Cl.Cl` [compound 323, 1-((2-(dimethyl-amino)ethyl)amino)-3-((7-(pyrrolidin-1-yl)-3-(trifluoromethyl)-10H-phenothiazin-1-yl)amino) propan-2-one hydrochloride], for which the MIC in experiment [1] was 128 µg/mL; in experiment [2] (setting [4]) it was greater than 128 µg/mL.

Consider `Cl.NCCN1CCC(Nc2cc(C(F)(F)F)cc3c2Nc2ccc(N4CCC(C(N)=O)C4)cc2S3)CC1` (stereo not shown) [compound 338, 1-(9-((1-(2-aminoethyl)piperidin-4-yl)amino)-7-(trifluoromethyl)-10H-phenothiazin-3-yl)pyrrolidine-3-carboxamide hydrochloride], for which the figures for the MIC in experiment [1] and in experiment [2] (setting [3]) were 4 µg/mL and 64 µg/mL, respectively.

For `Cl.Cl.NCCN1CCC(Nc2cc(C(=O)N3CCCC3)cc3c2Nc2ccccc2S3)CC1` [compound 288, (1-(1-(2-aminoethyl)piperidin-4-ylamino)-10H-phenothiazin-3-yl)(pyrrolidin-1-yl)methanone], the MIC in experiment [1] and in experiment [2] (setting [4]) was 128 µg/mL in each case.

Turning to `NCCCN1c2ccc(N3CCNCC3)cc2Sc2cc(C(F)(F)F)ccc21` [compound 265, 3-(3-(piperazin-1-yl)-7-(trifluoromethyl)-10H-phenothiazin-10-yl)propan-1-amine hydrochloride], the MIC in experiment [1] came to 16 µg/mL; in experiment [2] (setting [4]), 64 µg/mL.

For the compound `Cl.NCCOCCCNc1cc(C(F)(F)F)cc2c1Nc1ccc(Br)cc1S2` [compound 344, N-(3-(2-aminoethoxy)propyl)-7-bromo-3-(trifluoromethyl)-10H-phenothiazin-1-amine hydrochloride], the MIC in experiment [1] was 8 µg/mL; in experiment [2] (setting [3]), 16 µg/mL.

With `Cl.Cl.NCCN1CCC(Nc2cc(C(=O)NNc3ccc(F)cc3)cc3c2Nc2ccccc2S3)CC1` [compound 280, 1-((1-(2-aminoethyl)piperidin-4-yl)amino)-N′-(4-fluorophenyl)-10H-phenothiazine-3-carbohydrazide hydrochloride], the MIC was found to be 16 µg/mL in experiment [1] and 64 µg/mL in experiment [2] (setting [3]).

With `Cl.NCCNCCCNc1cc(C(F)(F)F)cc2c1Nc1ccc(N3CC4CCC3C4)cc1S2` (stereo not shown) [compound 350, N1-(7-(2-azabicyclo[2.2.1]heptan-2-yl)-3-(trifluoromethyl)-10H-phenothiazin-1-yl)-N3-(2-aminoethyl) propane-1,3-diamine hydrochloride], the MIC was 4 µg/mL in experiment [1] and 8 µg/mL in experiment [2] (setting [3]).

Consider `Cl.Cl.NCCCN1c2ccc(C(=O)O)cc2Sc2cc(N3CCN(CCN)CC3)ccc21` [compound 277, 7-(4-(2-aminoethyl)piperazin-1-yl)-10-(3-aminopropyl)-10H-phenothiazine-3-carboxylic acid hydrochloride], for which the MIC in experiment [1] and in experiment [2] (setting [4]) was greater than 128 µg/mL in each case.

Take `CC1CC(C)CN(c2ccc3c(c2)Sc2cc(C(F)(F)F)cc(NCCCNCCN)c2N3)C1.Cl` (stereo not shown) [compound 346, N1-(2-aminoethyl)-N3-(7-(3,5-dimethylpiperidin-1-yl)-3-(trifluoromethyl)-10H-phenothiazin-1-yl) propane-1,3-diamine hydrochloride]: the MIC in experiment [1] is 4 µg/mL; in experiment [2] (setting [3]) it was 16 µg/mL.

Consider `CC1CC(C)CN(c2ccc3c(c2)Nc2c(NC4CCN(CCN)CC4)cc(C(F)(F)F)cc2S3)C1.Cl` (stereo not shown) [compound 357, N-(1-(2-aminoethyl)piperidin-4-yl)-8-(3,5-dimethyl-piperidin-1-yl)-3-(trifluoromethyl)-10H-phenothiazin-1-amine hydrochloride], for which the values for the MIC in experiment [1] and in experiment [2] (setting [3]) were 16 µg/mL and 64 µg/mL, respectively.

On to `CC1CC(C)CN(c2ccc3c(c2)Sc2cc(N4CCN(CCN)CC4)ccc2N3CCCN)C1.Cl.Cl.Cl.Cl` (stereo not shown) [compound 286, 3-(3-(4-(2-aminoethyl)piperazin-1-yl)-7-(3,5-dimethyl-piperidin-1-yl)-10H-phenothiazin-10-yl)propan-1-amine hydrochloride], for which the MIC in experiment [1] came out at 32 µg/mL; in experiment [2] (setting [3]) it was 128 µg/mL.

For `COC1CCCN(c2ccc3c(c2)Sc2cc(C(F)(F)F)cc(NC4CCN(CCN)CC4)c2N3)C1.Cl` (stereo not shown) [compound 326, N-(1-(2-aminoethyl)piperidin-4-yl)-7-(3-methoxy-piperidin-1-yl)-3-(trifluoromethyl)-10H-phenothiazin-1-amine hydrochloride], the minimum inhibitory concentration (MIC) in experiment [1] was determined as 8 µg/mL; in experiment [2] (setting [3]), 16 µg/mL.

For the compound `CC1CCCN(c2ccc3c(c2)Sc2cc(C(F)(F)F)cc(NC(=O)C4CCCC(N)C4)c2N3)C1.Cl.Cl` (stereo not shown) [compound 313, 3-amino-N-(7-(3-methyl-piperidin-1-yl)-3-(trifluoromethyl)-10H-phenothiazin-1-yl)cyclohexane-1-carboxamide hydrochloride], the figures for the MIC in experiment [1] and in experiment [2] (setting [3]) were 16 µg/mL and greater than 128 µg/mL, respectively.

Consider `CC1CN(c2ccc3c(c2)Sc2cc(Br)ccc2N3CCCN)CC(C)O1.Cl` (stereo not shown) [compound 279, 3-(3-bromo-7-(2,6-dimethyl-morpholino)-10H-phenothiazin-10-yl)propan-1-amine hydrochloride], for which the MIC was 16 µg/mL in experiment [1] and 128 µg/mL in experiment [2] (setting [3]).

`Cl.Cl.NCCN(CCN)CCN1CCC(Nc2cc(C(F)(F)F)cc3c2Nc2ccc(N4CCCC4)cc2S3)CC1` [compound 335, N1-(2-aminoethyl)-N1-(2-(4-((7-(pyrrolidin-1-yl)-3-(trifluoromethyl)-10H-phenothiazin-1-yl)amino)piperidin-1-yl)ethyl)ethane-1,2-diamine hydrochloride]: the results for the MIC in experiment [1] and in experiment [2] (setting [3]) were 4 µg/mL and 64 µg/mL, respectively.

As for `CC1CC(C)N(c2ccc3c(c2)Sc2cc(C(F)(F)F)cc(NC4CCN(CCN)CC4)c2N3)C1.Cl.Cl` (stereo not shown) [compound 341, N-(1-(2-aminoethyl)piperidin-4-yl)-7-(2,4-dimethyl-pyrrolidin-1-yl)-3-(trifluoromethyl)-10H-phenothiazin-1-amine hydrochloride], the MIC in experiment [1] worked out at 1 µg/mL; in experiment [2] (setting [3]) it was 8 µg/mL.

With `Cl.NCCCNc1cc(C(F)(F)F)cc2c1Nc1ccc(N3CCCC3)cc1S2` [compound 324, N1-(7-(pyrrolidin-1-yl)-3-(trifluoromethyl)-10H-phenothiazin-1-yl)propane-1,3-diamine hydrochloride], the minimum inhibitory concentration (MIC) worked out at 4 µg/mL in experiment [1] and 32 µg/mL in experiment [2] (setting [3]).

For `Cl.Cl.NCCN1CCC(Nc2cc(C(F)(F)F)cc3c2Nc2ccc(Br)cc2S3)CC1` [compound 282, N-(1-(2-aminoethyl)piperidin-4-yl)-7-bromo-3-(trifluoromethyl)-10H-phenothiazin-1-amine hydrochloride], the MIC in experiment [1] is 4 µg/mL; in experiment [2] (setting [3]), 8 µg/mL.

Take `Cl.Cl.Cl.NCCCN1c2ccc(N3CCCC3)cc2Sc2cc(N3CCN(CCN)CC3)ccc21` [compound 291, 3-(3-(4-(2-aminoethyl)piperazin-1-yl)-7-(pyrrolidin-1-yl)-10H-phenothiazin-10-yl)propan-1-amine hydrochloride]: the figures for the MIC in experiment [1] and in experiment [2] (setting [3]) were 16 µg/mL and 128 µg/mL, respectively.

Regarding `Cl.Cl.Cl.NCCCN1c2ccc(Br)cc2Sc2cc(N3CCN(CCN)CC3)ccc21` [compound 278, 3-(3-(4-(2-aminoethyl)piperazin-1-yl)-7-bromo-10H-phenothiazin-10-yl)propan-1-amine hydrochloride], the results for the MIC in experiment [1] and in experiment [2] (setting [3]) were 32 µg/mL and 128 µg/mL, respectively.

In the case of `FC(F)(F)c1cc(NC2CCNCC2)c2c(c1)Sc1cc(N3CCNCC3)ccc1N2` [compound 270, 7-(piperazin-1-yl)-N-(piperidin-4-yl)-3-(trifluoromethyl)-10H-phenothiazin-1-amine hydrochloride], the MIC in experiment [1] was found to be 32 µg/mL; in experiment [2] (setting [4]), 128 µg/mL.

Take `CCOC(=O)c1ccc2c(c1)Sc1cc(Br)ccc1N2CCCN` [compound 276, ethyl 10-(3-aminopropyl)-7-bromo-10H-phenothiazine-3-carboxylate]: the values for the MIC in experiment [1] and in experiment [2] (setting [3]) were 4 µg/mL (≈ 9.82 µM) and 32 µg/mL (≈ 78.6 µM), respectively.

Consider `FC(F)(F)c1cc(NC2CCNCC2)c2c(c1)Sc1cccnc1N2` [compound 264, N-(piperidin-4-yl)-7-(trifluoromethyl)-10H-benzo[b] pyrido[2,3-e] [1,4]thiazin-9-amine], for which the results for the MIC in experiment [1] and in experiment [2] (setting [3]) were 8 µg/mL (≈ 21.8 µM) and 16 µg/mL (≈ 43.7 µM), respectively.

Regarding `Cl.NCCCNc1cc(C(F)(F)F)cc2c1Nc1ccc(Br)cc1S2` [compound 333, N1-(7-bromo-3-(trifluoromethyl)-10H-phenothiazin-1-yl)propane-1,3-diamine hydrochloride], the MIC in experiment [1] stood at 8 µg/mL; in experiment [2] (setting [3]), 16 µg/mL.

In the case of `Cl.NCCNCCCNc1cc(C(F)(F)F)cc2c1Nc1cc(Br)ccc1S2` [compound 355, N1-(2-aminoethyl)-N3-(8-bromo-3-(trifluoromethyl)-10H-phenothiazin-1-yl)propane-1,3-diamine hydrochloride], the values for the MIC in experiment [1] and in experiment [2] (setting [3]) were 4 µg/mL and 8 µg/mL, respectively.

With `Cl.NCCN1CCC(Nc2cc(C(F)(F)F)cc3c2Nc2ccc(N4CCCC(F)C4)cc2S3)CC1` (stereo not shown) [compound 318, N-(1-(2-aminoethyl)piperidin-4-yl)-7-(3-fluoro-piperidin-1-yl)-3-(trifluoromethyl)-10H-phenothiazin-1-amine hydrochloride], the MIC in experiment [1] is 8 µg/mL; in experiment [2] (setting [3]), 16 µg/mL.

These data come from patent US11130741B2 (Bioimics AB, priority 2016, dated 2021).
